The target of assay [1] is T1, GSK-3β(AA 1-420) (Homo sapiens, UniProt P49841).
T1 construct: GSK-3β(AA 1-420)
Nature of the assay: GSK-3 Inhibition Assay (standard coupled enzyme system). In kind it is biochemical. The following applies: 20 μM ATP, 30° C. How it is done: Compounds of the present invention were screened for their ability to inhibit GSK-3β(AA 1-420) activity using a standard coupled enzyme system (Fox et al., Protein Sci. 1998, 7, 2249). Reactions were carried out in a solution containing 100 mM HEPES (pH 7.5), 10 mM MgCl2, 25 mM NaCl, 300 μM NADH, 1 mM DTT and 1.5% DMSO. Final substrate concentrations in the assay were 20 μM ATP (Sigma Chemicals, St Louis, Mo.) and 300 μM peptide (American Peptide, Sunnyvale, Calif.). Reactions were carried out at 30° C. and 20 nM GSK-3β. Final concentrations of the components of the coupled enzyme system were 2.5 mM phosphoenolpyruvate, 300 μM NADH, 30 μg/ml pyruvate kinase and 10 μg/ml lactate dehydrogenase.
An assay stock buffer solution was prepared containing all of the reagents listed above with the exception of ATP and the test compound of the present invention. The assay stock buffer solution (175 μl) was incubated in a 96 well plate with 5 μl of the test compound of the present invention at final concentrations spanning 0.002 μM to 30 μM at 30° C. for 10 min. Typically, a 12-point titration was conducted by preparing serial dilutions (from 10 mM compound stocks) with DMSO of the test compounds of the present invention in daughter plates. The reaction was initiated by the addition of 20 μl of ATP (final concentration 20 μM). Rates of reaction were obtained using a Molecular Devices Spectramax plate reader (Sunnyvale, Calif.) over 10 min at 30° C. The Ki values were determined from the rate data as a function of inhibitor concentration.

For assay [2], the system named is rat brains after transient middle cerebral artery occlusion (MCAO). The conditions noted are these: cited from earlier work.
The mark [3] stands for this setting: range printed with mixed units (500 nM to 1 uM).

T1 sequence (P49841 whole entry, species assumed, the tested form may be a part): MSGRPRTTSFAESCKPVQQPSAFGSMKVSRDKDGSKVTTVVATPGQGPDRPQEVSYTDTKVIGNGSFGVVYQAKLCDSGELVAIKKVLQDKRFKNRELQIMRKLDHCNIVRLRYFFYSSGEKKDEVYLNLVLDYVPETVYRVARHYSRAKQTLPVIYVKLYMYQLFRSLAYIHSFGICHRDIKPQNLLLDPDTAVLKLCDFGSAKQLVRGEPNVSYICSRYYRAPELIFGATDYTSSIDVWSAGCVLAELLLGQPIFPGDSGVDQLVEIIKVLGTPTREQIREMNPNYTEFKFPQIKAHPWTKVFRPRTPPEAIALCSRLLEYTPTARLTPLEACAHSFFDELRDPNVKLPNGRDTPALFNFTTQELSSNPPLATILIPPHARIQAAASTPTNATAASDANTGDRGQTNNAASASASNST

`Cc1cc(Nc2cc(N3CCC3)nc(-c3ccccc3Cl)n2)n[nH]1` [Compound I-1, 6-(Azetidin-1-yl)-2-(2-chlorophenyl)-N-(5-methyl-1H-pyrazol-3-yl)pyrimidin-4-amine] displayed a Ki in assay [1] (300 μM peptide, 20 nM GSK-3β) of 50 to 500 nM.
With `Cc1cnc(Nc2cc(N3CCC3)nc(-c3ccccc3Cl)n2)s1` [Compound I-2], the Ki in assay [1] (300 μM peptide, 20 nM GSK-3β) was less than 50 nM.
Same read-out and setting: then `Fc1cnc2[nH]nc(Nc3cc(N4CCC4)nc(-c4ccccc4Cl)n3)c2c1` [Compound I-3], with less than 50 nM.
Same read-out and setting: then `Cc1cc(Nc2cc(N3CC(F)(F)C3)nc(-c3ccccc3Cl)n2)n[nH]1` [Compound I-4], with 50 to 500 nM; and `Cc1cc(Nc2cc(N3CC(F)(C4CC4)C3)nc(-c3ccccc3Cl)n2)n[nH]1` [Compound I-5], with 50 to 500 nM.
`Cc1cc(Nc2cc(N3CC(O)(C4CC4)C3)nc(-c3ccccc3Cl)n2)n[nH]1` [Compound I-6] had a Ki in assay [1] (setting [3]) of 500 to 1000 nM.
On the same count and under the same terms, then `Cc1cc(Nc2cc(N3CC(C)(O)C3)nc(-c3ccccc3Cl)n2)n[nH]1` [Compound I-7], with 500 to 1000 nM.
Take `Cc1cc(Nc2cc(N3CC(O)(C(C)(C)C)C3)nc(-c3ccccc3Cl)n2)n[nH]1` [Compound I-8]: the Ki in assay [1] (300 μM peptide, 20 nM GSK-3β) lay in the range of 1000 to 5000 nM.
In the case of `Fc1cnc2[nH]nc(Nc3cc(N4CC(F)(C5CC5)C4)nc(-c4ccccc4Cl)n3)c2c1` [Compound I-9], in assay [1] (300 μM peptide, 20 nM GSK-3β), the Ki was less than 50 nM.
In assay [1] (300 μM peptide, 20 nM GSK-3β), `OC1(C2CC2)CN(c2cc(Nc3n[nH]c4ccc(F)cc34)nc(-c3ccccc3Cl)n2)C1` [Compound I-10] displayed a Ki of 50 to 500 nM.
`OC1(C2CC2)CN(c2cc(Nc3n[nH]c4ncc(F)cc34)nc(-c3ccccc3Cl)n2)C1` [Compound I-11] gave a Ki in assay [1] (300 μM peptide, 20 nM GSK-3β) of less than 50 nM.
Compound `Cc1cc(Nc2cc(C3CNC3)nc(-c3ccccc3Cl)n2)n[nH]1` [Compound I-12, 6-(Azetidin-3-yl)-2-(2-chlorophenyl)-N-(5-methyl-1H-pyrazol-3-yl)pyrimidin-4-amine] had an inhibition constant (Ki) in assay [1] (300 μM peptide, 20 nM GSK-3β) of 50 to 500 nM.
For “IGF-1: IGF-1 (insulin growth factor-1), a known GSK-3 inhibitor”, the infarct size result in assay [2] is recorded as “reduced infarct size”.

For orientation: Ki means the dissociation constant of the complex between target and ligand, obtained from inhibition or displacement. Read a high Ki as weaker binding.

Values taken from US8372850B2, “Aminopyridines and aminopyrimidines useful as inhibitors of protein kinases” (Vertex Pharmaceuticals Incorporated, priority 2006, dated 2013).
